Laboratory results from patent publication US20150175584A1, “Quinazolin-THF-amines as PDE1 inhibitors” (H. LUNDBECK A/S, priority 2013, published 2015).

Columns and labels:
Format in all cases: biochemical
Conditions in all cases: 15 nM tritium labelled cAMP, 1 h at room temperature, SPA beads
[1] = target: PDE1C (Homo sapiens, UniProt Q14123); assay: PDE1 Inhibition Assay, PDE1C (SPA)
Experimental: (§1) PDE1A, PDE1B and PDE1C assays were performed as follows: the assays was performed in 60 μL samples containing a fixed amount of the PDE1 enzym1 (sufficient to convert 20-25% of the cyclic nucleotide substrate), a buffer (50 mM HEPES pH 7.6; 10 mM MgCl2; 0.02% Tween20), 0.1 mg/ml BSA, 15 nM tritium labelled cAMP and varying amounts of inhibitors. Reactions were initiated by addition of the cyclic nucleotide substrate, and reactions were allowed to proceed for 1 h at room temperature before being terminated through mixing with 20 μL (0.2 mg) yttrium silicate SPA beads (PerkinElmer). The beads were allowed to settle for 1 h in the dark before the plates were counted in a Wallac 1450 Microbeta counter. The measured signals were converted to activity relative to an uninhibited control (100%) and IC50 values were calculated using XIFit (model 205, IDBS).

[2] = target: PDE1B (Homo sapiens, UniProt Q01064); assay: PDE1 Inhibition Assay, PDE1B (SPA)
Experimental: as §1

[3] = target: PDE1A (Homo sapiens, UniProt P54750); assay: PDE1 Inhibition Assay, PDE1A (SPA)
Experimental: as §1

PDE1C, sequence (Q14123 whole entry): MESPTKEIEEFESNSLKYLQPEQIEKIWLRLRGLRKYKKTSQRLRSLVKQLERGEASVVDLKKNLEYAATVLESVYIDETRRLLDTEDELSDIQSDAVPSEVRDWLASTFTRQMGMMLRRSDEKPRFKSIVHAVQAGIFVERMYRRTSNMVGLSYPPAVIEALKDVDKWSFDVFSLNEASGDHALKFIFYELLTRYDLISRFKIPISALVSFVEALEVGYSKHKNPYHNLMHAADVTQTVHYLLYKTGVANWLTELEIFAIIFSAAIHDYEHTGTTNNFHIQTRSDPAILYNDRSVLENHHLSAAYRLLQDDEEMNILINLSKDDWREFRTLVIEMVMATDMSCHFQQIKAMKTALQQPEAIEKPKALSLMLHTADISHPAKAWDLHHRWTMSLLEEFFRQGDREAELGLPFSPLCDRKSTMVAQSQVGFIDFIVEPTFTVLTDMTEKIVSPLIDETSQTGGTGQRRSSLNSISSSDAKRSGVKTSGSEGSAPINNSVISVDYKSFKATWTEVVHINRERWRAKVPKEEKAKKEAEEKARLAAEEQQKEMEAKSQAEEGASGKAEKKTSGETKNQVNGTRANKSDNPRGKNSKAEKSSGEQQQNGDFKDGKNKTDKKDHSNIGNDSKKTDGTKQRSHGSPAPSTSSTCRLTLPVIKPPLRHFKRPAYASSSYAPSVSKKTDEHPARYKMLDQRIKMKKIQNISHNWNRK
PDE1A, sequence (P54750 whole entry): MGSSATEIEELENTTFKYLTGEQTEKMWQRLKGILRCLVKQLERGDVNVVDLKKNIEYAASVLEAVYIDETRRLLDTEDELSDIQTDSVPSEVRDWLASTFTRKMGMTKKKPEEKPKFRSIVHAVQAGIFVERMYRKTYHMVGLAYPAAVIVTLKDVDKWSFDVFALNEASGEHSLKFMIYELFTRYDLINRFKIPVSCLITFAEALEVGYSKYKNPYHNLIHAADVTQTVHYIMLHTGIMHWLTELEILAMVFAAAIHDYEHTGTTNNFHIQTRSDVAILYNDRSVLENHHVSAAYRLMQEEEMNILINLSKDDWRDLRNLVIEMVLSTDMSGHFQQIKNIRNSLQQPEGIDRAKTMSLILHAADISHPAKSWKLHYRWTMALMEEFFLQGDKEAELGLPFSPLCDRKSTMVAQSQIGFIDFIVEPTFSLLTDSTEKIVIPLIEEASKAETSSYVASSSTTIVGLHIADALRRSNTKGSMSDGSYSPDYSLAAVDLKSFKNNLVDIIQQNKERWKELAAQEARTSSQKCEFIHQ
PDE1B, sequence (Q01064 whole entry): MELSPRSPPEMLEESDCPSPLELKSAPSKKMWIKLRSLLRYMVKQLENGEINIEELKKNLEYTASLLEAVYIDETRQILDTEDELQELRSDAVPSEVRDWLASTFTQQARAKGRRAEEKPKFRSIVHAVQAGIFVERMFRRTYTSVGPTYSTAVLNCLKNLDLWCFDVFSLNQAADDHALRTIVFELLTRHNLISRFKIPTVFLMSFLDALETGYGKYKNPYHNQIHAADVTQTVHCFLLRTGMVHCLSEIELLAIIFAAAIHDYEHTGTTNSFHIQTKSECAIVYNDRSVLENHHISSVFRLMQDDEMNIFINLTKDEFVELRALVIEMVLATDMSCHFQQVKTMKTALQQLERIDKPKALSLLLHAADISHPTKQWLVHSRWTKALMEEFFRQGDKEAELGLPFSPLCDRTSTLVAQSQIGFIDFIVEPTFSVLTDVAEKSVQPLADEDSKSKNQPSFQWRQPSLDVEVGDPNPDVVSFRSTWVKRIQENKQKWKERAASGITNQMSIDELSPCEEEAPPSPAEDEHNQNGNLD

Row | IC50 [1] [µM] | IC50 [2] [µM] | IC50 [3] [µM] | Compound
1 | 0.13 | 0.033 | 0.13 | COc1ccc2c(NC3(C)CCOC3C)ncnc2c1OC (mixture of isomers) [Compound 5, N-(2,3-dimethyltetrahydrofuran-3-yl)-7,8-dimethoxyquinazolin-4-amine]
2 | 0.59 | 0.23 | 1.2 | COc1ccc2c(NC3CCOC3)ncnc2c1OC (racemic) [Compound 1, 7,8-Dimethoxy-N-(tetrahydrofuran-3-yl)quinazolin-4-amine]
3 | 1.3 | 0.52 | 2.2 | COc1ccc2c(N[C@@H]3COC[C@H]3OC)ncnc2c1OC (relative stereo) [Compound 17, Trans-7,8-dimethoxy-N-(4-methoxytetrahydrofuran-3-yl)quinazolin-4-amine]
4 | 2.6 | 1.3 | 2.3 | COc1ccc2c(N[C@@H]3COC[C@H]3O)ncnc2c1OC (relative stereo) [Compound 18, trans-4-((7,8-dimethoxyquinazolin-4-yl)amino)tetrahydrofuran-3-ol]
5 |  | 0.84 | 4.6 | COc1ccc2c(N[C@@H]3COC[C@@H]3O)ncnc2c1OC (relative stereo) [Compound 19, cis-4-((7,8-dimethoxyquinazolin-4-yl)amino)tetrahydrofuran-3-ol]
6 | 0.079 | 0.028 | 0.11 | COc1ccc2c(N(C)C3CCOC3C)ncnc2c1OC (single isomer, unassigned) [22 Stereoisomer 1]
7 | 0.055 | 0.035 | 0.21 | COc1ccc2c(N(C)C3CCOC3C)ncnc2c1OC (single isomer, unassigned) [22 Stereoisomer 2]
8 | 1.5 | 0.43 | 1.1 | COc1ccc2c(N(C)C3CCOC3C)ncnc2c1OC (single isomer, unassigned) [22 Stereoisomer 3]
9 | 0.78 | 1.1 | 1.5 | COc1ccc2c(N(C)C3CCOC3C)ncnc2c1OC (single isomer, unassigned) [22 Stereoisomer 4]
10 | 0.5 | 0.07 | 0.24 | COc1ccc2c(N(C)C3(C)CCOC3)ncnc2c1OC (single isomer, unassigned) [23 Stereoisomer 1]
11 | 0.17 | 0.055 | 0.16 | COc1ccc2c(N(C)C3(C)CCOC3)ncnc2c1OC (single isomer, unassigned) [23 Stereoisomer 2]
12 | 0.14 | 0.084 | 0.36 | COc1ccc2c(N(C)C3CCOC3)ncnc2c1OC (stereo not shown) [Compound 4, 7,8-Dimethoxy-N-methyl-N-(tetrahydrofuran-3-yl)quinazolin-4-amine]
13 | 0.16 | 0.062 | 0.15 | COc1ccc2c(NC3(C)CCOC3)ncnc2c1OC (stereo not shown) [Compound 6, 7,8-dimethoxy-N-(3-methyltetrahydrofuran-3-yl)quinazolin-4-amine]
14 | 0.51 | 0.25 | 0.48 | CCN(c1ncnc2c(OC)c(OC)ccc12)[C@H]1CCOC1 [Compound 8, (S)-N-ethyl-7,8-dimethoxy-N-(tetrahydrofuran-3-yl)quinazolin-4-amine]
15 | 0.54 | 0.18 | 0.28 | CCCN(c1ncnc2c(OC)c(OC)ccc12)[C@H]1CCOC1 [Compound 9, (S)-7,8-dimethoxy-N-propyl-N-(tetrahydrofuran-3-yl)quinazolin-4-amine]
16 | 1.4 | 0.36 | 0.82 | COc1ccc2c(N(Cc3ccccc3)[C@H]3CCOC3)ncnc2c1OC [Compound 10, (S)-N-benzyl-7,8-dimethoxy-N-(tetrahydrofuran-3-yl)quinazolin-4-amine]
17 | 1.6 | 0.42 | 0.85 | COc1ccc2c(N(CC3CC3)[C@H]3CCOC3)ncnc2c1OC [Compound 11, (S)-N-(cyclopropylmethyl)-7,8-dimethoxy-N-(tetrahydrofuran-3-yl)quinazolin-4-amine]
18 | 1.5 | 0.6 | 1.2 | CCN(c1ncnc2c(OC)c(OC)ccc12)[C@@H]1CCOC1 [Compound 13, (R)—N-ethyl-7,8-dimethoxy-N-(tetrahydrofuran-3-yl)quinazolin-4-amine]
19 | 0.36 | 0.18 | 0.27 | CCCN(c1ncnc2c(OC)c(OC)ccc12)[C@@H]1CCOC1 [Compound 14, (R)-7,8-dimethoxy-N-propyl-N-(tetrahydrofuran-3-yl)quinazolin-4-amine]
20 | 2.1 | 0.82 | 2.5 | COc1ccc2c(N(CC3CC3)[C@@H]3CCOC3)ncnc2c1OC [Compound 15, (R)—N-(cyclopropylmethyl)-7,8-dimethoxy-N-(tetrahydrofuran-3-yl)quinazolin-4-amine]
21 | 1.6 | 0.41 | 1.2 | COc1ccc2c(N(Cc3ccccc3)[C@@H]3CCOC3)ncnc2c1OC [Compound 16, (R)—N-benzyl-7,8-dimethoxy-N-(tetrahydrofuran-3-yl)quinazolin-4-amine]
22 | 0.22 | 0.063 |  | CCC1(Nc2ncnc3c(OC)c(OC)ccc23)CCOC1 (stereo not shown) [Compound 24, N-(3-Ethyltetrahydrofuran-3-yl)-7,8-dimethoxyquinazolin-4-amine]

The next lines start with the molecule.

Row | Compound | IC50 [1] [µM] | IC50 [2] [µM] | IC50 [3] [µM]
23 | COc1ccc2c(NC3CCOC3)ncnc2c1OC (single isomer, unassigned) [1 Stereoisomer 1] | 0.28 | 0.054 | 0.28
24 | COc1ccc2c(NC3CCOC3)ncnc2c1OC (single isomer, unassigned) [1 Stereoisomer 2] | 1.2 | 0.6 | 1.9
25 | COc1ccc2c(NC3CCOC3C)ncnc2c1OC (single isomer, unassigned) [3 Stereoisomer 1] | 3 | 1.2 | 2.5
26 | COc1ccc2c(NC3CCOC3C)ncnc2c1OC (single isomer, unassigned) [3 Stereoisomer 2] | 0.31 | 0.094 | 0.49
27 | COc1ccc2c(NC3CCOC3C)ncnc2c1OC (single isomer, unassigned) [3 Stereoisomer 3] | 0.39 | 0.1 | 0.89
28 | COc1ccc2c(NC3CCOC3C)ncnc2c1OC (single isomer, unassigned) [3 Stereoisomer 4] | 0.27 | 0.12 | 0.58
29 | COc1ccc2c(N(C)[C@@H]3CCOC3)ncnc2c1OC (single isomer, unassigned) [4 Stereoisomer 1] | 0.14 | 0.08 | 0.37
30 | COc1ccc2c(N(C)[C@H]3CCOC3)ncnc2c1OC (single isomer, unassigned) [4 Stereoisomer 2] | 0.14 | 0.08 | 1.4
31 | COc1ccc2c(NC3(C)CCOC3C)ncnc2c1OC (single isomer, unassigned) [5 Stereoisomer 1] | 1.1 | 0.3 | 0.59
32 | COc1ccc2c(NC3(C)CCOC3C)ncnc2c1OC (single isomer, unassigned) [5 Stereoisomer 2] | 0.4 | 0.087 | 0.24
33 | COc1ccc2c(NC3(C)CCOC3C)ncnc2c1OC (single isomer, unassigned) [5 Stereoisomer 3] | 0.067 | 0.006 | 0.033
34 | COc1ccc2c(NC3(C)CCOC3C)ncnc2c1OC (single isomer, unassigned) [5 Stereoisomer 4] | 0.14 | 0.015 | 0.077
35 | COc1ccc2c(NC3(C)CCOC3)ncnc2c1OC (single isomer, unassigned) [6 Stereoisomer 1] | 0.4 | 0.11 | 0.29
36 | COc1ccc2c(NC3(C)CCOC3)ncnc2c1OC (single isomer, unassigned) [6 Stereoisomer 2] | 0.11 | 0.037 | 0.14
37 | COc1ccc2c(N(C)C3(C)CCOC3C)ncnc2c1OC (single isomer, unassigned) [20 Stereoisomer 1] | 0.033 | 0.005 | 0.019
38 | COc1ccc2c(N(C)C3(C)CCOC3C)ncnc2c1OC (single isomer, unassigned) [20 Stereoisomer 2] | 0.027 | 0.004 | 0.026
39 | COc1ccc2c(N(C)C3(C)CCOC3C)ncnc2c1OC (single isomer, unassigned) [20 Stereoisomer 3] | 0.89 | 0.19 | 0.44
40 | COc1ccc2c(N(C)C3(C)CCOC3C)ncnc2c1OC (single isomer, unassigned) [20 Stereoisomer 4] | 0.17 | 0.039 | 0.12
41 | COc1ccc2c(NC3CCOC3(C)C)ncnc2c1OC (single isomer, unassigned) [21 Stereoisomer 1] | 2.8 | 0.78 | 1.5
42 | COc1ccc2c(NC3CCOC3(C)C)ncnc2c1OC (single isomer, unassigned) [21 Stereoisomer 2] | 1.6 | 0.26 | 1.3
